The text below walks through data of US10040815B2, “3-substituted 5-amino-6H-thiazolo[4,5-d]pyrimidine-2,7-dione compounds for the treatment and prophylaxis of virus infection” (Hoffmann-La Roche Inc., priority 2014, dated 2018).

One assay has as its target human TLR7 (Homo sapiens (Human), UniProt Q9NYK1). Put plainly: HEK293-Blue-hTLR-7 cells assay (SEAP reporter, NF-κB activation). It is filed as cell-based. The note with it: HEK293-Blue-hTLR-7 cells, 20 hours incubation, SEAP reporter; read-out: HEK293- hTLR-7 EC50. An excerpt: HEK293-Blue-hTLR-7 Cells Assay: A stable HEK293-Blue-hTLR-7 cell line was purchased from InvivoGen (Cat.#: hkb-htlr7, San Diego, Calif., USA). These cells were designed for studying the stimulation of human TLR7 by monitoring the activation of NF-κB. A SEAP (secreted embryonic alkaline phosphatase) reporter gene was placed under the control of the IFN-β[…] minimal promoter fused to five NF-κB and AP-1-binding sites. The SEAP was induced by activating NF-κB and AP-1 via stimulating HEK-Blue hTLR7 cells with TLR7 ligands. Therefore the reporter expression was regulated by the NF-κB promoter upon stimulation of human TLR7 for 20 hours. The cell culture supernatant SEAP reporter activity was determined using QUANTI-Blue™ kit (Cat.#: rep-qb1, Invivogen, San Diego, Calif., USA) at a wavelength of 640 nm, a detection medium that turns purple or blue in the presence of alkaline phosphatase. […] Then 20 μL of the supernatant from each well was incubated with 180 μL Quanti-blue substrate solution at 37° C. for 2 hours and the absorbance was read at 620˜655 nm using a spectrophotometer. […] Hiroaki Hemmi et al, Nature Immunology 3, 196-200 (2002).

A further assay relates to murine PBMC. Put plainly: In vitro cytokine induction in murine PBMC (multiplex assay). The settings on record: 2 to 10 μM, 24 hours, dose-dependent.
The next assay addresses murine TLR7 (Mus musculus (Mouse), UniProt P58681). The assay can be described thus: HEK293-Blue-mTLR7 cell assay (SEAP reporter). Type of assay: cell-based. The settings on record: HEK293-Blue-mTLR7 cells, 20 hours incubation; read-out: EC50 of murine TLR7 activation. As to the method: FIG. 1: Example 1-A activates murine TLR7 in a HEK-Blue-mTLR assay. The cells were incubated with Example 1-A and a positive control GS-9620 at indicated concentrations for 20 hours. The activation of murine TLR7 was measured using a Quanti-Blue assay.
TLR7 Agonist Example 1-A Activates Murine TLR7
The potency of the TLR7 agonist Example 1-A activating murine TLR7 was assessed using a stable HEK293-Blue-mTLR7 cell line available from InvivoGen (Cat.#: hkb-mtlr7, San Diego, Calif., USA). Similar to the HEK293-Blue-hTLR7 as described in Example 43, the HEK293-Blue-mTLR7 is designed for studying the stimulation of murine TLR7 by monitoring the activation of NF-κB. A SEAP reporter gene was placed under the control of the IFN-β minimal promoter fused to five NF-κB and AP-1-binding sites. The SEAP expression was induced by the activation of NF-κB and AP-1 upon stimulation of murine TLR7 with TLR7 ligands. SEAP expression in cell culture supernatant was determined using a QUANTI-Blue™ kit (Cat.#: rep-qb1, Invivogen, San Diego, Calif., USA), a detection medium that turns purple/blue in the presence of alkaline phosphatase, at a wavelength of 655 nm. […]

Each structure is given as a SMILES string. pEC50: −log10 of the molar value.

Sequence of human TLR7 (Q9NYK1 27-1049): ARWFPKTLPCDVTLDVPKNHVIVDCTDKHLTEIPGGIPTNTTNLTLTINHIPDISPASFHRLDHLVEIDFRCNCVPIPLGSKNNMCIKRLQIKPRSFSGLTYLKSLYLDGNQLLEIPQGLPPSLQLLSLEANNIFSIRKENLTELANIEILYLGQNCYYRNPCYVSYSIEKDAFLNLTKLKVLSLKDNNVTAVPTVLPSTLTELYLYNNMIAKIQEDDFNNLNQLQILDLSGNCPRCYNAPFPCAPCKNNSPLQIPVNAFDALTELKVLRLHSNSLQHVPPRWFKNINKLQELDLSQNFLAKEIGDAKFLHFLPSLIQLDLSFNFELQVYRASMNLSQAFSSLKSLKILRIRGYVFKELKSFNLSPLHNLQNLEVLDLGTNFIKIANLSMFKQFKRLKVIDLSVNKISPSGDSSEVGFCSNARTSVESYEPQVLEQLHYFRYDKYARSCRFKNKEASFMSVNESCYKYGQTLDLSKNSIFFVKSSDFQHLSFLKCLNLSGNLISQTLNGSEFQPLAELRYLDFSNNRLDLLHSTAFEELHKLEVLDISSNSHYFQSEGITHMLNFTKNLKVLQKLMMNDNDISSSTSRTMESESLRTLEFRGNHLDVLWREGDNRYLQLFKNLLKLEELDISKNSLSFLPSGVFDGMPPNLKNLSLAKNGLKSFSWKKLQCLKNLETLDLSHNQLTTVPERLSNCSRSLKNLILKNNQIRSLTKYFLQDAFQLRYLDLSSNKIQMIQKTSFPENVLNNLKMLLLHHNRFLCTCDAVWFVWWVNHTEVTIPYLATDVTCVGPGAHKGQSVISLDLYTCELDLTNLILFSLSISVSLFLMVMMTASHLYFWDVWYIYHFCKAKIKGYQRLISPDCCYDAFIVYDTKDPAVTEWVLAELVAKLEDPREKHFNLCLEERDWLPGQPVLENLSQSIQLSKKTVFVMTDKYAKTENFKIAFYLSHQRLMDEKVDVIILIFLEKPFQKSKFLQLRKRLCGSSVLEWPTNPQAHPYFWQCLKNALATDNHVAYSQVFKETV
Sequence of murine TLR7 (P58681 27-1050 limits assumed): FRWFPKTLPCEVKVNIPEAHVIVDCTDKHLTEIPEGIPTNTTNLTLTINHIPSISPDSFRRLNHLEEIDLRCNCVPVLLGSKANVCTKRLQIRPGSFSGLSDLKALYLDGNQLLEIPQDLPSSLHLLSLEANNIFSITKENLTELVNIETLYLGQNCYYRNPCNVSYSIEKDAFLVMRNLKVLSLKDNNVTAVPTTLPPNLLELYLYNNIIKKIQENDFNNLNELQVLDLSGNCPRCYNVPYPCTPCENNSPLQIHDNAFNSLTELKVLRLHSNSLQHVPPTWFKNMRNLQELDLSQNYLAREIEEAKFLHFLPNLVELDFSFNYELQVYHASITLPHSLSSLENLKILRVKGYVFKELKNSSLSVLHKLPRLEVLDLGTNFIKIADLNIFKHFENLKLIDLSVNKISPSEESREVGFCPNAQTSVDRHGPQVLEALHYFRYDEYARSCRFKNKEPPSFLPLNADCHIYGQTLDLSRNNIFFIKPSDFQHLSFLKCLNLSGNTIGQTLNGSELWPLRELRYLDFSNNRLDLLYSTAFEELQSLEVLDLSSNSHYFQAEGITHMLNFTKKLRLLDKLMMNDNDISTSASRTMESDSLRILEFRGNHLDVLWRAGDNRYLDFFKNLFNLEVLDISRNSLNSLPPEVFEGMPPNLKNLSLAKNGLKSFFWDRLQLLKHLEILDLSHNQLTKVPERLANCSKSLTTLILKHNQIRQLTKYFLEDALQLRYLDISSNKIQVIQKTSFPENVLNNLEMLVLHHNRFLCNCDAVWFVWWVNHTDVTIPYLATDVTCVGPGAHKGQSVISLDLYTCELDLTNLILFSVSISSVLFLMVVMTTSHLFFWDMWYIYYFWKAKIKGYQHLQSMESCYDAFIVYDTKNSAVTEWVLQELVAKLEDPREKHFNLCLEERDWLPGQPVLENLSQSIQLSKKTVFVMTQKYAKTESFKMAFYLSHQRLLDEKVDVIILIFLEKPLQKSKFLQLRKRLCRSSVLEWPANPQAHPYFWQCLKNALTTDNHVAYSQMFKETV
Description for murine PBMC: Supernatants were collected at 24 hour post treatment and cytokine levels in supernatants were assessed by a multiplex assay.
50 μL of cell culture medium was collected and analyzed with a 36 plex Procarta multiplex kit (ebioscience EPX360-26092-901, eBioscience), which measured the levels of 15 cytokine analytes, following the manufacturer's instruction.

On to `CCC(O)[C@@H]1C[C@@H](O)[C@H](n2c(=O)sc3c(=O)[nH]c(N)nc32)O1` (single isomer, unassigned) [Example 1-A], for which the pEC50 (as a rule, −log10 of the EC50, conventionally taken in molar units) at human TLR7 was 4.28. In the assay with murine PBMC, the IFNα induction entry is “high levels”, the IL-6 induction result is on record as “high levels”, the IP10 induction entry is recorded as “high levels” and the TNFα induction result is reported as “high levels”. Moreover, the pEC50 on murine TLR7 was 4.14.
